Data on 6 compounds can be found in PubChem BioAssay AID1259411 (Chemical Carcinogenesis Research Information System (CCRIS), 2018).

For this series, the system named is rodent carcinogenicity bioassays, tumor incidence. Put plainly: CCRIS carcinogenicity studies. In a few lines: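 NCI-built, expert-reviewed records of carcinogenicity and related test outcomes (mutagenicity, tumor promotion/inhibition) compiled from published and report sources, historical span 1985-2011, not updated.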

The source made the active and inactive calls. How the calls were made is not given here.

As for `Cc1cccn2c1nc1ccc(N)nc12`, the carcinogen call runs as follows: (Species: MOUSE, Strain/Sex: B6C3F1/MALE, Route: INTRAPERITONEAL, Dose: 0, 0.625 UMOL IN 35 µL DMSO ON D 1, 8, AND 15 AFTER BIRTH (STUDY DURATION: 8 MO), Tumor Site: Type of Lesion: LIVER: HEPATOCELLULAR ADENOMA) “active; positive”; (Species: MOUSE, Strain/Sex: B6C3F1/MALE, Route: INTRAPERITONEAL, Dose: 0, 0.625 UMOL IN 35 µL DMSO ON D 1, 8, AND 15 AFTER BIRTH (STUDY DURATION: 12 MO), Tumor Site: Type of Lesion: LIVER: HEPATOCELLULAR ADENOMA) “active; positive”; (Species: MOUSE, Strain/Sex: B6C3F1/MALE, Route: INTRAPERITONEAL, Dose: 0, 1.25 UMOL IN 35 µL DMSO ON D 1, 8, AND 15 AFTER BIRTH (STUDY DURATION: 8 MO), Tumor Site: Type of Lesion: LIVER: HEPATOCELLULAR ADENOMA) “active; positive”; (Species: MOUSE, Strain/Sex: B6C3F1/MALE, Route: INTRAPERITONEAL, Dose: 0, 1.25 UMOL IN 35 µL DMSO ON D 1, 8, AND 15 AFTER BIRTH (STUDY DURATION: 12 MO), Tumor Site: Type of Lesion: LIVER: HEPATOCELLULAR ADENOMA) “active; positive”; (Species: MOUSE, Strain/Sex: CDF1/FEMALE, Route: ORAL, Dose: 0, 0.05% IN DIET FOR UP TO 685 D (STUDY DURATION: 685 D), Tumor Site: Type of Lesion: LIVER: HEPATOCELLULAR ADENOMA OR CARCINOMA, BLOOD VESSELS: HEMANGIOENDOTHELIOMA OR HEMANGIOENDOTHELIAL SARCOMA) “active; positive”; (Species: MOUSE, Strain/Sex: CDF1/MALE, Route: ORAL, Dose: 0, 0.05% IN DIET FOR 12 MO (STUDY DURATION: 12 MO), Tumor Site: Type of Lesion: BROWN ADIPOSE TISSUE: HEMANGIOENDOTHELIAL SARCOMA, LIVER: HEPATOCELLULAR ADENOMA OR CARCINOMA, LUNG: PULMONARY ADENOMA O, Tumor Site: Type of Lesion: BROWN ADIPOSE TISSUE: HEMANGIOENDOTHELIAL SARCOMA, LIVER: HEPATOCELLULAR ADENOMA OR CARCINOMA, LUNG: PULMONARY ADENOMA O) “active; positive”. The carcinogen call reads like this: (Species: MOUSE, Strain/Sex: CDF1/MALE, Route: ORAL, Dose: 0, 0.05% IN DIET FOR UP TO 685 D (STUDY DURATION: 685 D), Tumor Site: Type of Lesion: BLOOD VESSELS: HEMANGIOENDOTHELIOMA OR HEMANGIOENDOTHELIAL SARCOMA) “active; positive”; (Species: RAT, Strain/Sex: F344/FEMALE, Route: ORAL, Dose: 0, 500 PPM IN DIET (AV DAILY DOSE: 4.3 MG) FOR 24 MO (STUDY DURATION: 104 WK), Tumor Site: Type of Lesion: LIVER: HEPATOCELLULAR CARCINOMA OR ANAPLASTIC HEPATOMA, SMALL INTESTINE: ADENOMA OR ADENOCARCINOMA OR MUCINOUS CARCINOMA) “active; positive”; (Species: RAT, Strain/Sex: F344/MALE, Route: ORAL, Dose: 0, 500 PPM IN DIET (AV DAILY DOSE: 7.4 MG) FOR 24 MO (STUDY DURATION: 104 WK), Tumor Site: Type of Lesion: LIVER: HEPATOCELLULAR CARCINOMA OR ANAPLASTIC HEPATOMA, SMALL INTESTINE: ADENOMA OR ADENOCARCINOMA OR MUCINOUS CARCINOMA) “active; positive”.

For the compound `CCCCN(N=O)C(N)=O`, the carcinogen call (Species: MOUSE (NEWBORN), Strain/Sex: CD-1/MALE,FEMALE, Route: SUBCUTANEOUS, Dose: 333 MG/KG IN 1% GEL SOLN WITHIN 24 HR OF BIRTH, Tumor Site: Type of Lesion: LUNG: ADENOMA, ADENOCARCINOMA, LIVER: ADENOMA) is “active; positive”; the carcinogen call (Species: RAT, Strain/Sex: F344/FEMALE, Route: GAVAGE, Dose: 0, 15 MG/ML (TOTAL DOSE 0; 1.7 MMOL) IN 2 ML ETHYL ACETATE AND CORN OIL (1:2) 2/WK FOR 40 WK (STUDY DURATION: LIFETIME), Dose: 0, 15 MG/ML (TOTAL DOSE 0; 1.7 MMOL) IN 2 ML ETHYL ACETATE AND CORN OIL (1:2) 2/WK FOR 40 WK (STUDY DURATION: LIFETIME), Tumor Site: Type of Lesion: FORESTOMACH: SQUAMOUS CELL CARCINOMA, LUNG: TUMOR, MAMMARY GLAND: TUMOR, UTERUS: TUMOR, Tumor Site: Type of Lesion: FORESTOMACH: SQUAMOUS CELL CARCINOMA, LUNG: TUMOR, MAMMARY GLAND: TUMOR, UTERUS: TUMOR) was “active; positive”; the carcinogen call (Species: RAT, Strain/Sex: F344/FEMALE, Route: GAVAGE, Dose: 0, 15 MG/ML IN 0.2 ML ETHYL ACETATE AND CORN OIL 2/WK FOR 40 WK (STUDY DURATION: LIFESPAN), Tumor Site: Type of Lesion: FORESTOMACH: TUMOR, LUNG: TUMOR, MAMMARY GLAND: TUMOR, UTERUS: TUMOR, Tumor Site: Type of Lesion: FORESTOMACH: TUMOR, LUNG: TUMOR, MAMMARY GLAND: TUMOR, UTERUS: TUMOR) is “active; positive”; the carcinogen call (Species: RAT, Strain/Sex: F344/MALE, Route: GAVAGE, Dose: 0, 15 MG/ML (TOTAL DOSE 0; 1.7 MMOL) IN 2 ML ETHYL ACETATE AND CORN OIL (1:2) 2/WK FOR 40 WK (STUDY DURATION: LIFETIME), Dose: 0, 15 MG/ML (TOTAL DOSE 0; 1.7 MMOL) IN 2 ML ETHYL ACETATE AND CORN OIL (1:2) 2/WK FOR 40 WK (STUDY DURATION: LIFETIME), Tumor Site: Type of Lesion: FORESTOMACH: SQUAMOUS CELL CARCINOMA, LUNG: TUMOR) is “active; positive”; the carcinogen call (Species: RAT, Strain/Sex: F344/MALE, Route: GAVAGE, Dose: 0, 15 MG/ML IN 0.2 ML ETHYL ACETATE AND CORN OIL 2/WK FOR 40 WK (STUDY DURATION: LIFESPAN), Tumor Site: Type of Lesion: FORESTOMACH: TUMOR, LUNG: TUMOR) was “active; positive”.

`C/C=C/c1cc(OC)c(OC)cc1OC`: the carcinogen call was “active; positive” (Species: MOUSE, Strain/Sex: B6C3F1/MALE, Route: INTRAPERITONEAL, Dose: 0, 0.25, 0.5 UMOL/G BW ONCE (STUDY DURATION: 10-11 MONTHS), Dose: 0, 0.25, 0.5 UMOL/G BW ONCE (STUDY DURATION: 10-11 MONTHS), Tumor Site: Type of Lesion: LIVER: HEPATOMA) and “inactive; negative” (Species: MOUSE, Strain/Sex: CD-1/FEMALE, Route: DERMAL, Dose: 0, 5 UMOL 1X/WK FOR 3 WK BEGINNING 24 HR POST FIRST TPA DOSE (2.5 UG IN 0.1 ML ACETONE), FOLLOWED BY 2.5 UG TPA IN 0.1 M).

Consider `N#CCCC(Br)(C#N)CBr` (stereo unspecified), for which the carcinogen call was “inactive; negative” (Species: Mouse, Strain/Sex: B6C3F1/Female (50/Group), Route: Dermal, Dose: 0, 0.6, 2, 6 mg/kg in 95% ethanol on clipped area of skin 5 d/wk for 2 yr, Dose: 0, 0.6, 2, 6 mg/kg in 95% ethanol on clipped area of skin 5 d/wk for 2 yr); “inactive; negative” (Species: Mouse, Strain/Sex: B6C3F1/Male (50/Group), Route: Dermal, Dose: 0, 0.6, 2, 6 mg/kg in 95% ethanol on clipped area of skin 5 d/wk for 2 yr, Dose: 0, 0.6, 2, 6 mg/kg in 95% ethanol on clipped area of skin 5 d/wk for 2 yr); “inactive; negative” (Species: Rat, Strain/Sex: F344/N / Female (50/Group), Route: Dermal, Dose: 0, 2, 6, 18 mg/kg in 95% ethanol on clipped area of skin 5 d/wk for 2 yr, Dose: 0, 2, 6, 18 mg/kg in 95% ethanol on clipped area of skin 5 d/wk for 2 yr); “inactive; negative” (Species: Rat, Strain/Sex: F344/N / Male (50/Group), Route: Dermal, Dose: 0, 2, 6, 18 mg/kg in 95% ethanol on clipped area of skin 5 d/wk for 2 yr, Dose: 0, 2, 6, 18 mg/kg in 95% ethanol on clipped area of skin 5 d/wk for 2 yr).

`CC1(C)CN=C(NN=C(/C=C/c2ccc(C(F)(F)F)cc2)/C=C/c2ccc(C(F)(F)F)cc2)NC1`: the carcinogen call (Species: Mouse, Strain/Sex: CD-1/Female (?/Group), Route: Oral, Dose: 0, 25, 50, 100, 200 ppm of 92% hydramethylnon in diet for 18 mo, study duration 18 mo, Dose: 0, 25, 50, 100, 200 ppm of 92% hydramethylnon in diet for 18 mo, study duration 18 mo) was “inactive; negative”; the carcinogen call (Species: Mouse, Strain/Sex: CD-1/Male (?/Group), Route: Oral, Dose: 0, 25, 50, 100, 200 ppm of 92% hydramethylnon in diet for 18 mo, study duration 18 mo, Dose: 0, 25, 50, 100, 200 ppm of 92% hydramethylnon in diet for 18 mo, study duration 18 mo) was “inactive; negative”; the carcinogen call (Species: Rat, Strain/Sex: CD/Female (50/Group), Route: Oral, Dose: 0, 25, 50, 100, 200 ppm in diet for 2 yr, study duration 2 yr, Dose: 0, 25, 50, 100, 200 ppm in diet for 2 yr, study duration 2 yr) is “inactive; negative”; the carcinogen call (Species: Rat, Strain/Sex: CD/Male (50/Group), Route: Oral, Dose: 0, 25, 50, 100, 200 ppm in diet for 2 yr, study duration 2 yr, Dose: 0, 25, 50, 100, 200 ppm in diet for 2 yr, study duration 2 yr) is “inactive; negative”.

Take `NNCCc1ccccc1`: the carcinogen call was “active; positive” (Species: MOUSE, Strain/Sex: SWISS/MALE, Route: ORAL, Dose: 0, 0.15% IN WATER, Tumor Site: Type of Lesion: BLOOD VESSELS: ANGIOMA, ANGIOSARCOMA, LUNG: ADENOMA, ADENOCARCINOMA) and “inactive; negative” (Species: RAT, Strain/Sex: SPRAGUE-DAWLEY/MALE, Route: ORAL, Dose: 0, 0.02% IN DIET FOR 68-87 WK (STUDY DURATION: 87 WK)).
